Broadly, the EC50 is the concentration giving half of the maximal effect. By Emax is commonly meant the size of the effect at its maximum, as opposed to the concentration needed.

Structures are written as SMILES.

The assay has as its target T1, S1P1 mutant L6.41E (Homo sapiens, UniProt P21453, L262E).
T1 construct: expressed in transfected cells; host or cells: RH7777
Briefly: [35S]GTPγS binding, S1P1 L6.41E. The conditions noted are these: S1P-induced, S1P1 L6.41E in RH7777 cells. Format: biochemical. As for the experimental part:
RH7777 and HEK-293 cells (ATCC, Manassas, Va.) were maintained in Dulbecco's modified minimal essential medium (DMEM) containing 10% fetal bovine serum (Hyclone, Logan, Utah). Cells (2×10^6) were transfected with 2 μg of plasmid DNA with Effectene (Qiagen, Valencia, Calif.) according to the manufacturer's instructions, for 24 h. Before ligand binding and receptor activation assays, the cells were washed twice with serum-free DMEM and serum-starved for at least 6 h.
S1P1 Receptor Activation Assays Receptor functional assays were performed in transiently transfected RH7777 cells by measuring S1P-activated [^35S]GTPγS binding as previously described (28).
(In general: GTPγS is a poorly hydrolysed GTP analogue; its binding reports G protein activation.)

T1 sequence (P21453 whole entry L262E): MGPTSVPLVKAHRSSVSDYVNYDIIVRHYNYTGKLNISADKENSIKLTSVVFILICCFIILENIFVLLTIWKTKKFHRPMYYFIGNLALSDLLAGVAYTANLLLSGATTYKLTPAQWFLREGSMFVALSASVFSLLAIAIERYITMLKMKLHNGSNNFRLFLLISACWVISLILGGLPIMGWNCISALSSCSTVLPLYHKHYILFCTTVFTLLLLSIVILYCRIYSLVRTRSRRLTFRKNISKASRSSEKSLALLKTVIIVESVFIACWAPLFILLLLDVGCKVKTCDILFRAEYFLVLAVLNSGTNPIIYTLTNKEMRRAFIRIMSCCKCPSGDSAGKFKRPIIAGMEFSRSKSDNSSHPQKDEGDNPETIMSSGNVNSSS

With `CCCCCCCCCCCCC/C=C/[C@@H](O)[C@@H](N)COP(=O)(O)O` [S1P, Sphingosine 1-phosphate], the EC50 came to 4.1 ± 0.63 nM. Also, the Emax (read-out: % WT Emax + s.d.) came out at 59%.
